Measured values from the NIST ThermoML archive (doi:10.1021/je034036t).
Numbers after ± are expanded uncertainties.

Conditions: Liquid, Pulse-echo method

COCCOCCOCCOC [2,5,8,11-tetraoxadodecane]
speed of sound [m/s]
Conditions | 293.15 K | 303.15 K | 313.15 K | 323.15 K | 333.15 K | 343.15 K | 353.15 K
100 kPa | 1361.9 ± 1.8 | 1323.2 ± 1.8 | 1285.1 ± 1.8 | 1247.7 ± 1.7 | 1210.9 ± 1.7 | 1174.6 ± 1.7 | 1138.7 ± 1.7
10000 kPa | 1403.1 ± 1.9 | 1366.5 ± 1.8 | 1330 ± 1.8 | 1294.6 ± 1.8 | 1259.5 ± 1.7 | 1225.1 ± 1.7 | 1191.5 ± 1.7
20000 kPa | 1442.5 ± 1.9 | 1407.2 ± 1.9 | 1372.2 ± 1.8 | 1338.5 ± 1.8 | 1304.8 ± 1.8 | 1272 ± 1.8 | 1240 ± 1.7
30000 kPa | 1479.3 ± 1.9 | 1445.2 ± 1.9 | 1411.8 ± 1.9 | 1379.1 ± 1.8 | 1346.9 ± 1.8 | 1315.6 ± 1.8 | 1284.6 ± 1.8
40000 kPa | 1514.7 ± 2 | 1481.6 ± 1.9 | 1448.8 ± 1.9 | 1417.3 ± 1.9 | 1386.3 ± 1.9 | 1356.2 ± 1.8 | 1326.2 ± 1.8
50000 kPa | 1547.8 ± 2 | 1515.7 ± 2 | 1484.1 ± 1.9 | 1453.6 ± 1.9 | 1423.4 ± 1.9 | 1394.1 ± 1.9 | 1365.6 ± 1.8
60000 kPa | 1579.5 ± 2 | 1548.2 ± 2 | 1517.5 ± 2 | 1487.9 ± 1.9 | 1458.8 ± 1.9 | 1430.3 ± 1.9 | 1402.4 ± 1.9
70000 kPa | 1610 ± 2.1 | 1579.4 ± 2 | 1549.7 ± 2 | 1520.7 ± 2 | 1492.1 ± 2 | 1464.6 ± 1.9 | 1437.6 ± 1.9
80000 kPa | 1639.3 ± 2.1 | 1609.3 ± 2.1 | 1580.3 ± 2 | 1552 ± 2 | 1524.3 ± 2 | 1497.2 ± 2 | 1470.9 ± 1.9
90000 kPa | 1667.4 ± 2.1 | 1638.2 ± 2.1 | 1609.9 ± 2.1 | 1581.9 ± 2 | 1554.8 ± 2 | 1528.4 ± 2 | 1502.6 ± 2
100000 kPa | 1694.6 ± 2.1 | 1665.9 ± 2.1 | 1638.1 ± 2.1 | 1610.8 ± 2.1 | 1584.3 ± 2 | 1558.5 ± 2 | 1533.4 ± 2

COCCOCCOCCOCCOC [2,5,8,11,14-pentaoxapentadecane]
speed of sound [m/s]
Conditions | 293.15 K | 303.15 K | 313.15 K | 323.15 K | 333.15 K | 343.15 K | 353.15 K
100 kPa | 1400.2 ± 1.9 | 1361.6 ± 1.8 | 1324.5 ± 1.8 | 1288 ± 1.8 | 1252 ± 1.7 | 1216.6 ± 1.7 | 1181.6 ± 1.7
10000 kPa | 1439.3 ± 1.9 | 1402.8 ± 1.9 | 1367 ± 1.8 | 1332.1 ± 1.8 | 1297.9 ± 1.8 | 1264.2 ± 1.7 | 1231.2 ± 1.7
20000 kPa | 1477.3 ± 1.9 | 1441.7 ± 1.9 | 1407.3 ± 1.9 | 1373.8 ± 1.8 | 1340.7 ± 1.8 | 1308.6 ± 1.8 | 1276.9 ± 1.8
30000 kPa | 1512.3 ± 2 | 1478.2 ± 1.9 | 1444.9 ± 1.9 | 1412.5 ± 1.9 | 1380.8 ± 1.8 | 1349.9 ± 1.8 | 1319.8 ± 1.8
40000 kPa | 1546.2 ± 2 | 1513 ± 2 | 1480.9 ± 1.9 | 1449.5 ± 1.9 | 1418.3 ± 1.9 | 1388.8 ± 1.9 | 1359.8 ± 1.8
50000 kPa | 1578.2 ± 2 | 1546.1 ± 2 | 1514.8 ± 2 | 1484.2 ± 1.9 | 1454.2 ± 1.9 | 1425.3 ± 1.9 | 1397.1 ± 1.9
60000 kPa | 1609.1 ± 2.1 | 1577.7 ± 2 | 1547.2 ± 2 | 1517.4 ± 2 | 1488.4 ± 1.9 | 1460.1 ± 1.9 | 1432.8 ± 1.9
70000 kPa | 1638.4 ± 2.1 | 1607.6 ± 2.1 | 1578.1 ± 2 | 1548.8 ± 2 | 1520.7 ± 2 | 1493.1 ± 2 | 1466.5 ± 1.9
80000 kPa | 1666.8 ± 2.1 | 1637 ± 2.1 | 1607.8 ± 2.1 | 1579.3 ± 2 | 1551.9 ± 2 | 1524.7 ± 2 | 1498.9 ± 2
90000 kPa | 1694.2 ± 2.1 | 1664.9 ± 2.1 | 1636.4 ± 2.1 | 1608.6 ± 2.1 | 1581.5 ± 2 | 1555.3 ± 2 | 1529.8 ± 2
100000 kPa | 1720.6 ± 2.2 | 1692 ± 2.1 | 1663.9 ± 2.1 | 1636.7 ± 2.1 | 1610.2 ± 2.1 | 1584.4 ± 2 | 1559.5 ± 2
